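1) Cells in 96-well plates. 2) Compound, 48 h, 5 concentrations. 3) Linear interpolation between surrounding doses. 4) Unreached endpoint = highest concentration. At the TGI there is no net growth.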
Experiments:
Experiment in all cases: growth of human tumour cells (NCI), 48 h
786-0 renal = test system: 786-0 renal
COLO 205 colon = test system: COLO 205 colon
K-562 leukemia = test system: K-562 leukemia
KM12 colon = test system: KM12 colon
MALME-3M melanoma = test system: MALME-3M melanoma
MDA-MB-435 = test system: MDA-MB-435
SF-539 CNS = test system: SF-539 CNS
SK-OV-3 ovarian = test system: SK-OV-3 ovarian
SNB-75 CNS = test system: SNB-75 CNS
TK-10 renal = test system: TK-10 renal

Structure (SMILES) | TGI (786-0 renal) | TGI (COLO 205 colon) | TGI (K-562 leukemia) | TGI (KM12 colon) | TGI (MALME-3M melanoma) | TGI (MDA-MB-435) | TGI (SF-539 CNS) | TGI (SK-OV-3 ovarian) | TGI (SNB-75 CNS) | TGI (TK-10 renal)
Cc1ccc([S@](=O)c2occc2C=O)cc1 | 11.3 µM | 28.9 µM | 4.25 µM | 31.5 µM | 8.45 µM | 20.8 µM | 25.8 µM | 26.5 µM | 30.9 µM | 18.6 µM
CSCSSC | > 100 µM | > 100 µM | > 100 µM | > 100 µM | > 100 µM | > 100 µM | > 100 µM | > 100 µM | > 100 µM | > 100 µM
OCCO/N=C1\C(c2c(O)[nH]c3ccccc23)=Nc2ccccc21 | > 100 µM | > 100 µM | > 100 µM | > 100 µM | > 100 µM | > 100 µM | > 100 µM | > 100 µM | > 100 µM | > 100 µM
N#CC1(C#N)NC(c2cccs2)C(C#N)(C#N)NC1c1cccs1 (stereo not given) | > 100 µM | > 100 µM | 56.3 µM | > 100 µM | > 100 µM | > 100 µM | 47.6 µM | > 100 µM | > 100 µM | > 100 µM
Cc1ccc(OCC2OC(n3cnc4c(Cl)nc(N)nc43)CC2Oc2ccc(C)cc2)cc1 (stereo not given) | > 100 µM | 98.2 µM | > 100 µM | > 100 µM | > 85.3 µM | > 100 µM | > 100 µM | > 100 µM | > 100 µM | > 100 µM
Cc1csc(NC23CC4CC(CC(C4)C2)C3)[n+]1C(P(=O)([O-])O)P(=O)(O)O (stereo not given) | > 100 µM | > 100 µM | > 100 µM | > 100 µM | > 100 µM | > 100 µM | > 100 µM | > 100 µM | > 100 µM | > 100 µM
CCOC(=O)c1nc2ccc(C(F)(F)F)cc2nc1Oc1cc(OC)c(OC)c(OC)c1 | > 100 µM | 63.7 µM | > 100 µM | > 100 µM | > 100 µM | > 100 µM | > 100 µM | > 100 µM | 68.6 µM | > 100 µM
O=[N+]([O-])c1ccc2sc(C=Nc3cnccn3)cc2c1 | > 100 µM | > 100 µM | 88.6 µM | > 100 µM | > 100 µM | > 100 µM | > 100 µM | > 100 µM | 63.5 µM | > 100 µM
CC1CCCC2(CC[N+](C)(CCC[N+](C)(C)C)CC2)C1 (stereo not given) | > 100 µM | > 100 µM | > 100 µM | > 100 µM | > 100 µM | > 100 µM | > 100 µM | > 100 µM | > 100 µM | > 100 µM
O=C1NC(=O)C(C(CC(=O)c2ccc([N+](=O)[O-])cc2)c2ccccc2)C(=O)N1 (stereo not given) | > 100 µM | > 100 µM | > 100 µM | 30.4 µM | 42.9 µM | > 100 µM | > 100 µM | > 100 µM | > 100 µM | 7.73 µM
O=C1CCCCC/C1=C\c1ccc([N+](=O)[O-])cc1 | 54.6 µM | 49.2 µM | > 100 µM | 37.6 µM | > 100 µM | > 100 µM | 62.5 µM | > 100 µM | > 100 µM | 74.4 µM
O=S(=O)(c1ccc(NC2=NC(c3ccc(O)cc3)(c3ccccc3O)c3ccccc32)cc1)c1ccc(NC2=NC(c3ccc(O)cc3)(c3ccccc3O)c3ccccc32)cc1 (stereo not given) | > 28.8 µM | > 33.6 µM | > 100 µM | > 21.4 µM | 13.1 µM | > 24.6 µM | > 100 µM | > 73.3 µM | > 27.5 µM | > 100 µM
Cc1ccc2c(=O)cc(-c3ccc(Cl)s3)[nH]c2n1 | > 80.4 µM | 28.8 µM | > 100 µM | > 100 µM | > 100 µM | > 100 µM | 3.93 µM | 53.3 µM | > 27.9 µM | > 100 µM

— PubChem BioAssay (NCI)
